Values belong to the compound of their own block, whether it stands above or below them.
What was measured:
alkaline phosphatase = assay: Alkaline phosphatase assay: light output of furimazine mono- or bis-phosphate pro-substrate with Nanoluc, with and without alkaline phosphatase; format: biochemical; settings: for Signal to Background: alkaline phosphatase vs none; for Background RLU: without alkaline phosphatase, Nanoluc
Method: Alkaline phosphatase assays. To the solution of 50 μl furimazine mono- or bis-phosphate compound (50 μM) and 50 μL of NanoGlo buffer containing 1 ng/mL Nanoluc was added, then alkaline phosphatase (Sigma) in PBS with final concentration at 1 Unit/ml/μM was added, and the light output was measured over time. The background of pro-substrate was measured under same condition without adding alkaline phasphotase.
(§1) The synthesized coelenterazine analogues (compounds of formula (I)) were evaluated for their background and signal/background ratio.

Cathepsin C = molecular target: T1, Cathepsin C (Bos taurus, UniProt Q3ZCJ8); assay: Cathepsin C assay: light output of furimazine mono- or bis-Gly-Phe pro-substrate with Nanoluc, with and without Cathepsin C; format: biochemical, bovine; settings: for Signal to Background: Cathepsin C vs none; for Background RLU: without Cathepsin C, Nanoluc
T1 construct: Cathepsin C (Sigma C8511 from bovine spleen); purchased Sigma C8511; host or cells: bovine spleen (tissue-derived)
T1 sequence (Q3ZCJ8 231-394 limits assumed): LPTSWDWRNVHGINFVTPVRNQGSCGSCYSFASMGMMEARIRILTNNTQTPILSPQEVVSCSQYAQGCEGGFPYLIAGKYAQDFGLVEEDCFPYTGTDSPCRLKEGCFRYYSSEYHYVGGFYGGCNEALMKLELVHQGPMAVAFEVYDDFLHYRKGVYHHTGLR
T1 sequence (Q3ZCJ8 25-134 limits assumed): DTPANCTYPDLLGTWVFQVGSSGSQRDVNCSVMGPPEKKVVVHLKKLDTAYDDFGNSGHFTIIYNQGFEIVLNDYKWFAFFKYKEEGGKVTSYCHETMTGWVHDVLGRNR
T1 sequence (Q3ZCJ8 395-463 limits assumed): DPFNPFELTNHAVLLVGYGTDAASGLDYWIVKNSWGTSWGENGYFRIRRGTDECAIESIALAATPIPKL
Method: Cathepsin C assay. To the solution of 50 μl of furimazine mono- or bis-Gly-Phe compound (50 μM) in 1:1 NanoGlo and nanopure water containing DTT 5 mM and 50 µL of 1 ng/mL Nanoluc buffer in 1:1 NanoGlo and nanopure water containing 5 mM DTT was added, then 10 μL of Cathepsin C (Sigma C8511 from bovine spleen) at final concentration of 0.1 U/well was added. The light output was measured over time. The background of pro-substrate was measured under same condition without adding Cathepsin C.
as §1

[1] = tested on: thermal stable β-glucosidase; assay: Glucosidase assay: light output of furimazine mono- or bis-glucoside pro-substrate with Nanoluc, with and without β-glucosidase; format: biochemical; settings: for Background RLU: without β-glucosidase, Nanoluc; for Signal to Background: β-glucosidase vs no β-glucosidase
Method: To the solution of 50 μl of furimazine mono- or bis-glucoside compound (100 μM) in NanoGlo buffer and 50 μl of NanoGlo buffer containing 1 ng/mL Nanoluc was added 11 μl of thermal stable β-glucosidase (Sigma) in PBS with final concentration of 1 Unit/ml/μM, and the light output was measured over time. The background of pro-substrate was measured under same condition without β-glucosidase.
as §1

SMILES: O=P(O)(O)Oc1c(Cc2ccco2)nc2c(Cc3ccccc3)nc(-c3ccccc3)cn12 [WZ-0265, Furimazine Phosphate]
Signal to Background (alkaline phosphatase; Time 5 min): 3
Background RLU (alkaline phosphatase; Time 5 min): 9,033,396 RLU
Signal to Background (alkaline phosphatase; Time 11 min): 3
Background RLU (alkaline phosphatase; Time 11 min): 9,181,168 RLU
Signal to Background (alkaline phosphatase; Time 21 min): 3
Background RLU (alkaline phosphatase; Time 21 min): 9,310,668 RLU
Signal to Background (alkaline phosphatase; Time 31 min): 3
Background RLU (alkaline phosphatase; Time 31 min): 9,376,837 RLU
Signal to Background (alkaline phosphatase; Time 42 min): 2
Background RLU (alkaline phosphatase; Time 42 min): 9,394,555 RLU
Signal to Background (alkaline phosphatase; Time 62 min): 2
Background RLU (alkaline phosphatase; Time 62 min): 9,359,460 RLU
Signal to Background (alkaline phosphatase; Time 93 min): 2
Background RLU (alkaline phosphatase; Time 93 min): 9,089,377 RLU
Signal to Background (alkaline phosphatase; Time 123 min): 2
Background RLU (alkaline phosphatase; Time 123 min): 8,772,026 RLU

SMILES: O=P(O)(O)Oc1ccc(COc2c(Cc3ccco3)nc3c(Cc4ccccc4)nc(-c4cccc(OP(=O)(O)O)c4)cn23)cc1 [WZ-0291, Furimazine Bis-Phosphate]
Signal to Background (alkaline phosphatase; Time 5 min): 18,907
Background RLU (alkaline phosphatase; Time 5 min): 713 RLU
Signal to Background (alkaline phosphatase; Time 11 min): 18,699
Background RLU (alkaline phosphatase; Time 11 min): 739 RLU
Signal to Background (alkaline phosphatase; Time 21 min): 19,076
Background RLU (alkaline phosphatase; Time 21 min): 723 RLU
Signal to Background (alkaline phosphatase; Time 31 min): 18,846
Background RLU (alkaline phosphatase; Time 31 min): 723 RLU
Signal to Background (alkaline phosphatase; Time 42 min): 18,568
Background RLU (alkaline phosphatase; Time 42 min): 722 RLU
Signal to Background (alkaline phosphatase; Time 62 min): 18,861
Background RLU (alkaline phosphatase; Time 62 min): 678 RLU
Signal to Background (alkaline phosphatase; Time 93 min): 17,014
Background RLU (alkaline phosphatase; Time 93 min): 680 RLU
Signal to Background (alkaline phosphatase; Time 123 min): 14,664
Background RLU (alkaline phosphatase; Time 123 min): 704 RLU
background (in words) (alkaline phosphatase; compared to mono-protected analogue WZ-0263): low
signal-to-background ratio (in words) (alkaline phosphatase; compared to mono-protected analogues WZ-0263 and WZ-0265): significantly higher

SMILES: OCC1OC(Oc2ccc(COc3c(Cc4ccco4)nc4c(Cc5ccccc5)nc(-c5ccccc5)cn34)cc2)C(O)C(O)C1O [WZ-0246, β-D-glucose Benzyl Furimazine]
Background RLU ([1]; Time 0 hr): 10,028 RLU
Signal to Background ([1]; Time 0 hr): 3,235
Background RLU ([1]; Time 0.1 hr): 10,884 RLU
Signal to Background ([1]; Time 0.1 hr): 2,915
Background RLU ([1]; Time 0.25 hr): 12,298 RLU
Signal to Background ([1]; Time 0.25 hr): 2,426
Background RLU ([1]; Time 0.5 hr): 13,047 RLU
Signal to Background ([1]; Time 0.5 hr): 2,193
Background RLU ([1]; Time 1 hr): 18,529 RLU
Signal to Background ([1]; Time 1 hr): 1,172
Background RLU ([1]; Time 1.5 hr): 20,751 RLU
Signal to Background ([1]; Time 1.5 hr): 926
Background RLU ([1]; Time 2 hr): 24,489 RLU
Signal to Background ([1]; Time 2 hr): 627
Background RLU ([1]; Time 3 hr): 29,692 RLU
Signal to Background ([1]; Time 3 hr): 385
Background RLU ([1]; Time 4 hr): 33,514 RLU
Signal to Background ([1]; Time 4 hr): 264
Background RLU ([1]; Time 5 hr): 37,181 RLU
Signal to Background ([1]; Time 5 hr): 210
Background RLU ([1]; Time 6 hr): 40,543 RLU
Signal to Background ([1]; Time 6 hr): 157
Background RLU ([1]; Time 16 hr): 23,092 RLU
Signal to Background ([1]; Time 16 hr): 36

SMILES: O=P(O)(O)Oc1ccc(COc2c(Cc3ccco3)nc3c(Cc4ccccc4)nc(-c4ccccc4)cn23)cc1 [WZ-0263, Furimazine Benzyl Phosphate]
Signal to Background (alkaline phosphatase; Time 5 min): 203
Background RLU (alkaline phosphatase; Time 5 min): 32,464 RLU
Signal to Background (alkaline phosphatase; Time 11 min): 232
Background RLU (alkaline phosphatase; Time 11 min): 36,745 RLU
Signal to Background (alkaline phosphatase; Time 21 min): 236
Background RLU (alkaline phosphatase; Time 21 min): 42,522 RLU
Signal to Background (alkaline phosphatase; Time 31 min): 245
Background RLU (alkaline phosphatase; Time 31 min): 48,399 RLU
Signal to Background (alkaline phosphatase; Time 42 min): 244
Background RLU (alkaline phosphatase; Time 42 min): 54,309 RLU
Signal to Background (alkaline phosphatase; Time 62 min): 230
Background RLU (alkaline phosphatase; Time 62 min): 65,661 RLU
Signal to Background (alkaline phosphatase; Time 93 min): 200
Background RLU (alkaline phosphatase; Time 93 min): 80,929 RLU
Signal to Background (alkaline phosphatase; Time 123 min): 170
Background RLU (alkaline phosphatase; Time 123 min): 94,825 RLU

Next, values leading:

background (in words) (Cathepsin C; FIG. 3, Tables 5 and 6): down to instrument noise
Signal to Background (Cathepsin C; Time 5 min): 751
Background RLU (Cathepsin C; Time 5 min): 20 RLU
Signal to Background (Cathepsin C; Time 10 min): 1,464
Background RLU (Cathepsin C; Time 10 min): 21 RLU
Signal to Background (Cathepsin C; Time 20 min): 2,256
Background RLU (Cathepsin C; Time 20 min): 18 RLU
Signal to Background (Cathepsin C; Time 30 min): 3,036
Background RLU (Cathepsin C; Time 30 min): 14 RLU
Signal to Background (Cathepsin C; Time 40 min): 3,941
Background RLU (Cathepsin C; Time 40 min): 14 RLU
Signal to Background (Cathepsin C; Time 60 min): 8,514
Background RLU (Cathepsin C; Time 60 min): 15 RLU
Signal to Background (Cathepsin C; Time 90 min): 11,997
Background RLU (Cathepsin C; Time 90 min): 16 RLU
Signal to Background (Cathepsin C; Time 120 min): 23,011
Background RLU (Cathepsin C; Time 120 min): 12 RLU
Signal to Background (Cathepsin C; Time 180 min): 29,836
Background RLU (Cathepsin C; Time 180 min): 17 RLU
Signal to Background (Cathepsin C; Time 240 min): 46,864
Background RLU (Cathepsin C; Time 240 min): 15 RLU
Signal to Background (Cathepsin C; Time 938 min): 17,386
Background RLU (Cathepsin C; Time 938 min): 12 RLU
signal-to-background ratio (in words) (Cathepsin C; compared to mono-protected analogue WZ-0294): significantly higher
SMILES: NCC(=O)NC(Cc1ccccc1)C(=O)Nc1ccc(COc2c(Cc3ccco3)nc3c(Cc4ccccc4)nc(-c4cccc(NC(=O)C(Cc5ccccc5)NC(=O)CN)c4)cn23)cc1 (stereo not drawn) [WZ-0299, Bis-Gly-Phe-Aminobenzyl Furimazine]

Signal to Background (Cathepsin C; Time 5 min): 151
Background RLU (Cathepsin C; Time 5 min): 8,974 RLU
Signal to Background (Cathepsin C; Time 10 min): 163
Background RLU (Cathepsin C; Time 10 min): 9,538 RLU
Signal to Background (Cathepsin C; Time 20 min): 180
Background RLU (Cathepsin C; Time 20 min): 10,825 RLU
Signal to Background (Cathepsin C; Time 30 min): 197
Background RLU (Cathepsin C; Time 30 min): 11,741 RLU
Signal to Background (Cathepsin C; Time 40 min): 210
Background RLU (Cathepsin C; Time 40 min): 12,664 RLU
Signal to Background (Cathepsin C; Time 60 min): 232
Background RLU (Cathepsin C; Time 60 min): 14,295 RLU
Signal to Background (Cathepsin C; Time 90 min): 255
Background RLU (Cathepsin C; Time 90 min): 16,141 RLU
Signal to Background (Cathepsin C; Time 120 min): 275
Background RLU (Cathepsin C; Time 120 min): 17,178 RLU
Signal to Background (Cathepsin C; Time 180 min): 273
Background RLU (Cathepsin C; Time 180 min): 20,562 RLU
Signal to Background (Cathepsin C; Time 240 min): 259
Background RLU (Cathepsin C; Time 240 min): 23,705 RLU
Signal to Background (Cathepsin C; Time 938 min): 142
Background RLU (Cathepsin C; Time 938 min): 15,995 RLU
SMILES: NCC(=O)NC(Cc1ccccc1)C(=O)Nc1ccc(COc2c(Cc3ccco3)nc3c(Cc4ccccc4)nc(-c4ccccc4)cn23)cc1 (stereo not drawn) [WZ-0294, Gly-Phe-Aminobenzyl Furimazine]

background signal (in words) ([1]; FIG. 1, Tables 1 and 2): close to instrument noise
Background RLU ([1]; Time 0 hr): 87 RLU
Signal to Background ([1]; Time 0 hr): 340,753
Background RLU ([1]; Time 0.1 hr): 39 RLU
Signal to Background ([1]; Time 0.1 hr): 134,646
Background RLU ([1]; Time 0.25 hr): 32 RLU
Signal to Background ([1]; Time 0.25 hr): 73,734
Background RLU ([1]; Time 0.5 hr): 21 RLU
Signal to Background ([1]; Time 0.5 hr): 58,191
Background RLU ([1]; Time 1 hr): 26 RLU
Signal to Background ([1]; Time 1 hr): 21,501
Background RLU ([1]; Time 1.5 hr): 26 RLU
Signal to Background ([1]; Time 1.5 hr): 12,822
Background RLU ([1]; Time 2 hr): 20 RLU
Signal to Background ([1]; Time 2 hr): 11,569
Background RLU ([1]; Time 3 hr): 14 RLU
Signal to Background ([1]; Time 3 hr): 11,041
Background RLU ([1]; Time 4 hr): 25 RLU
Signal to Background ([1]; Time 4 hr): 5,297
Background RLU ([1]; Time 5 hr): 26 RLU
Signal to Background ([1]; Time 5 hr): 4,585
Background RLU ([1]; Time 6 hr): 22 RLU
Signal to Background ([1]; Time 6 hr): 5,060
Background RLU ([1]; Time 16 hr): 26 RLU
Signal to Background ([1]; Time 16 hr): 2708
signal-to-background ratio, fold higher than the corresponding mono-protected analogue ([1]; at the initial time point): ~100 fold
signal-to-background ratio (in words) ([1]; compared to mono-protected analogues WZ-0261 and WZ-0246): significantly higher
background, fold lower than the corresponding mono-protected analogue WZ-0246 ([1]; vs WZ-0246): ~200 fold
SMILES: OCC1OC(Oc2ccc(COc3c(Cc4ccco4)nc4c(Cc5ccccc5)nc(-c5ccc(OC6OC(CO)C(O)C(O)C6O)cc5)cn34)cc2)C(O)C(O)C1O [WZ-0262, bis-(β-D-glucose) Benzyl Furimazine]

Source: patent US10316070B2, “Dual protected pro-coelenterazine substrates” (PROMEGA CORPORATION, priority 2016, dated 2019)
